# In patent US6503698B1, “Cryopreservation of swine embryos” (The United States of America as represented by the …, priority 2000, dated 2003):
# Marks after values point to notes of the source that are not given here.
# Test system: swine embryos
# Assay: Progressive development in vitro of swine embryos after cryopreservation by vitrification under the influence of microfilament stabilizer cytochalasin-b
# Assay type: cell-based
# Conditions: for % dev (progressive development in vitro after vitrification) / dev (number of embryos developed in vitro after vitrification): + cytochalasin-b
# Method: Cyto-b is added to the medium for MF depolymerization. Studies were carried out which documented microfilament (MF) alterations during swine embryo vitrification (Dobrinsky et al. 2000, supra).
# Developmental appraisals of the centrifuged cryopreserved embryos were carried out both in vitro and in vivo. For in vitro studies, morulae/blastocysts were cultured for 72 hours post-treatment. After culture, embryos were morphologically evaluated for their developmental progression. […] Since all morulae would have to develop into
# Embryos were vitrified as described by Dobrinsky and Johnson (supra) in vitrification medium [6.5M glycerol, 6% bovine serum albumin-V (BSA-V; Sigma Chemical Co., St. Louis, Mo.)]. Prior to cryopreservation, for microfilament depolymerization, embryos were incubated at 39° C. in 5% CO2 and air, 95% humidity for 30-45 min in culture medium containing 7.5 μg/ml cyto-b (Sigma Chemical co., supra; stock=5 mg/ml 95% food grade EtOH). Following incubation in cyto-b, embryos were removed from culture and washed 3 times in 2 ml handling medium with cyto-b for 5 min and then equilibrated in 1 ml handling medium containing 6% BSA-V and cyto-b for 5 min. Embryos were then washed in vitrification equilibration medium (25% glycerol v/v, 6% BSA-V) containing cyto-b, then placed in 20 μl of vitrification equilibration medium containing cyto-b in a 1.5-ml microcentrifuge tube. The tube was placed and counterbalanced in an Eppendorf 5415 microcentrifuge and centrifuged for 13 min at 13,000 rpm. During centrifugation, embryos were dehydrated and equilibrated with glycerol. Total time in vitrification equilibration medium was about 20 min, including the centrifugation time.
smiles,measurement,setting,value
C=C1[C@@H](C)[C@H]2[C@H](Cc3ccccc3)NC(=O)[C@]23OC(=O)/C=C/[C@H](O)CCC[C@@H](C)C/C=C/[C@H]3[C@@H]1O [Cytochalasin-b],% dev (progressive development in vitro after vitrification),HB1 = hatched blastocysts <400 μm diameter,90^c;z %
same,dev (number of embryos developed in vitro after vitrification),"HB1 = hatched blastocysts <400 μm diameter, n 48",43
same,% dev (progressive development in vitro after vitrification),HB2 = hatched blastocysts >400 μm diameter,41%
same,dev (number of embryos developed in vitro after vitrification),"HB2 = hatched blastocysts >400 μm diameter, n 22",9
same,% dev (progressive development in vitro after vitrification),MB = morulae/early blastocysts,6^a %
same,dev (number of embryos developed in vitro after vitrification),"MB = morulae/early blastocysts, n 17",1
same,% dev (progressive development in vitro after vitrification),XB = expanded blastocysts,60^b;z %
same,dev (number of embryos developed in vitro after vitrification),"XB = expanded blastocysts, n 25",15
same,survival and development of expanded and hatched blastocysts after vitrification,"expanded and hatched blastocysts, versus control without cyto-b",significantly (p<0.05) improved survival and development
same,morula/early blastocyst viability after vitrification,"morulae/early blastocysts, versus control without cyto-b",did not appear to improve
